From patent US11957687B2 (REGENERON PHARMACEUTICALS, INC., priority 2019, dated 2024)

What was measured:
HSD17B2 = HSD17B2 (Homo sapiens (Human), UniProt P37059); assay: HSD17B2 enzymatic blocking assay; type: biochemical; details: 1.8 μM Estradiol, 650 μM NAD; read-out: Inhibition of HSD17B2 IC50
Method in brief: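 Mammalian-expressed enzyme at 2 ng/μL in 50 mM Tris-HCl pH 7.5 with detergents/BSA, preincubated 15 min at 20° C. with compound (10-point titration). Reaction with 1.8 μM estradiol and 650 μM NAD ran 45 min at 20° C.; NADH measured by NADH-Glo luminescence and IC50 derived.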

[1] = Microsome stability assay, mouse liver microsomes; type: in vitro ADME; details: 1 μM compound, 0.5 mg/mL microsomal protein; for microsomal CLint at 1 h, 1 µM / half-life at 1 h, 1 µM / microsomal CLint at 1 μM / half-life at 1 μM: mouse, mouse liver microsomes, pooled, NADPH, 37° C.; for microsomal CLint at 1 h, 1 µM / microsomal CLint at 1 μM: read-out: Microsome Stability Mouse liver microsomes Cl; for half-life at 1 h, 1 µM / half-life at 1 μM: read-out: Microsome Stability Mouse liver microsomes T½
Method in brief: (§1)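 Compound at 1 μM incubated at 37° C with pooled human or mouse liver microsomes (0.5 mg/mL protein) plus NADPH regenerating system, sampled at 0–60 min; a 60-min no-NADPH incubation also included. Single replicate; LC/MS/MS disappearance from analyte/internal standard peak area ratios, without standard curve.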

HSD17B1 = HSD17B1 (Homo sapiens (Human), UniProt P14061); assay: HSD17B1 enzymatic blocking assay; type: biochemical; details: 25 μM Estradiol, 500 μM NAD; read-out: Inhibition of HSD17B1 IC50
Chain of HSD17B1 (P14061 other isoform, or with tags, fused parts or gaps): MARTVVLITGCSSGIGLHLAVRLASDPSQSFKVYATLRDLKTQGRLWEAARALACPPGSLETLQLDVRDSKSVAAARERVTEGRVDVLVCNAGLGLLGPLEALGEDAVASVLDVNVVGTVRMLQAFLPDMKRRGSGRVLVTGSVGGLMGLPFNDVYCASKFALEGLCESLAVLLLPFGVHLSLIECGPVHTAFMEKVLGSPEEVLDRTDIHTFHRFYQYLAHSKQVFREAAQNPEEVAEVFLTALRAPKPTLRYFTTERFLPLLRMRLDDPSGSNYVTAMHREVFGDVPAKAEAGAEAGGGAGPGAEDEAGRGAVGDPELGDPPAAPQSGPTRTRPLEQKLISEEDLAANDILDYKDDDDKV
Method in brief: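 Activity followed as NADH formed on estradiol oxidation, read by NADH-Glo luminescence after 1 h detection in the dark at room temperature. Compounds preincubated with enzyme 30 min at room temperature; 0.5% DMSO and no-substrate controls. IC50 fitted from luminescence.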

HSD17B13 = HSD17B13 (Homo sapiens (Human), UniProt Q7Z5P4); assay: HSD17B13 enzymatic inhibition assay (150 nM or 50 nM HSD17B13); type: biochemical; details: 50 nM HSD17B13; read-out: Inhibition of 50 nM of HSD17B13 IC50
Chain of HSD17B13 (Q7Z5P4 other isoform, or with tags, fused parts or gaps): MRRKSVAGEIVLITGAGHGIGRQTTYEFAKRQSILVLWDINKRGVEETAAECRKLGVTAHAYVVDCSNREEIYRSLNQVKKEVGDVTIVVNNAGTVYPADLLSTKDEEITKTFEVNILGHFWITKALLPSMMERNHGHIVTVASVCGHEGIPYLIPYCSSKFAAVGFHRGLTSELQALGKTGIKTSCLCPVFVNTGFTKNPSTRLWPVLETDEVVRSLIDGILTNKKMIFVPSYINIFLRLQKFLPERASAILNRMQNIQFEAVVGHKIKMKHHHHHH

[2] = Microsome stability assay, human liver microsomes; type: in vitro ADME; details: 1 μM compound, 0.5 mg/mL microsomal protein; for microsomal CLint at 1 h, 1 µM / half-life at 1 h, 1 µM / microsomal CLint at 1 μM / half-life at 1 μM: human, human liver microsomes, pooled, NADPH, 37° C.; for microsomal CLint at 1 h, 1 µM / microsomal CLint at 1 μM: read-out: Microsome Stability Human liver microsomes Cl; for half-life at 1 h, 1 µM / half-life at 1 μM: read-out: Microsome Stability Human liver microsomes T½
Method in brief: as §1

Chain of HSD17B2 (P37059 other isoform, or with tags, fused parts or gaps): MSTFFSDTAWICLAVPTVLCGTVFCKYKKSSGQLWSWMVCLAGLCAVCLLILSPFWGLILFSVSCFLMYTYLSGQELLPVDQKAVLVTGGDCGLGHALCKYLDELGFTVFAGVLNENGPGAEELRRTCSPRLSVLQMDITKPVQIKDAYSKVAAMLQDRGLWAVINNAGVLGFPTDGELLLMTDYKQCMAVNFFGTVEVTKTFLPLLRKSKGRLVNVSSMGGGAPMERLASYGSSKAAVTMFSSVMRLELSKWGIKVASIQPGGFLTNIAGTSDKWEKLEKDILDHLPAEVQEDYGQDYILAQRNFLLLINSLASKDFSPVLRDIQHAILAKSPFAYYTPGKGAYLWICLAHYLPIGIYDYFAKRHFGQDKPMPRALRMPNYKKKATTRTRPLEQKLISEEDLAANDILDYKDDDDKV

SMILES | IC50 (HSD17B2) | Microsome Stability Mouse liver microsomes % Remaining @60 min [1] | microsomal CLint at 1 h, 1 µM [1] | half-life at 1 h, 1 µM [1] | IC50 (HSD17B1) | IC50 (HSD17B13) | Microsome Stability Human liver microsomes % Remaining @60 min [2] | microsomal CLint at 1 h, 1 µM [2] | half-life at 1 h, 1 µM [2] | microsomal CLint at 1 μM [1] | half-life at 1 μM [1] | microsomal CLint at 1 μM [2] | half-life at 1 μM [2]
Cc1ccc2c(c1)Sc1cc(C)ccc1C2NC(=O)c1cc(-c2ccccc2)c(C(F)(F)F)[nH]c1=O [Compound 306, N-(3,6-dimethyl-9H-thioxanthen-9-yl)-2-oxo-5-phenyl-6-(trifluoromethyl)-1,2-dihydropyridine-3-carboxamide] | 17.3 µM | 70.90% | 9.6 µL/min/mg | 2.4 h | 7.47 µM | 0.03 µM | 12.80% | 72.9 µL/min/mg | 0.317 h |  |  |  | 
COc1ccc2c(c1)Sc1ccccc1C2NC(=O)c1ccc(C(F)F)[nH]c1=O (stereo not drawn) [Compound 272, 6-(difluoromethyl)-N-(3-methoxy-9H-thioxanthen-9-yl)-2-oxo-1,2-dihydropyridine-3-carboxamide] | 29.7 µM | 13.10% | 68.2 µL/min/mg | 0.338 h | > 30 µM | 0.43 µM | 73.40% | 12.1 µL/min/mg | 1.9 h |  |  |  | 
CCCC1CCc2cc(OC)ccc2C1NC(=O)c1ccc(C(F)(F)F)[nH]c1=O (stereo not drawn) [Compound 289, N-(6-methoxy-2-propyl-1,2,3,4-tetrahydronaphthalen-1-yl)-2-oxo-6-(trifluoromethyl)-1,2-dihydropyridine-3-carboxamide] | 29.4 µM | 22.70% | 47 µL/min/mg | 0.492 h | > 30 µM | 0.08 µM | 14.90% | 59.9 µL/min/mg | 0.385 h |  |  |  | 
Cc1ccc2c(c1)[C@H](O)CC[C@H]2NC(=O)c1ccc(C(F)(F)F)[nH]c1=O [Compound 311, N-((1R,4R)-4-hydroxy-6-methyl-1,2,3,4-tetrahydronaphthalen-1-yl)-2-oxo-6-(trifluoromethyl)-1,2-dihydropyridine-3-carboxamide] | > 100 µM | 105% |  |  | > 30 µM | 0.19 µM | 67.80% | 10.5 µL/min/mg | 2.2 h | < 9.6 µL/min/mg | > 2.42 h |  | 
COc1ccc2c(c1)Oc1cnccc1C2NC(=O)c1ccc(C(F)(F)F)[nH]c1=O (stereo not drawn) [Compound 327, N-(8-methoxy-5H-chromeno[2,3-c]pyridin-5-yl)-2-oxo-6-(trifluoromethyl)-1,2-dihydropyridine-3-carboxamide] | > 100 µM | 46% | 24.6 µL/min/mg | 0.938 h | 21.4 µM | 0.38 µM | 62% | 15.8 µL/min/mg | 1.46 h |  |  |  | 
O=C(Nc1cccc2c(O)cccc12)c1ccc(C(F)(F)F)[nH]c1=O [Compound 223, N-(5-hydroxynaphthalen-1-yl)-2-oxo-6-(trifluoromethyl)-1,2-dihydropyridine-3-carboxamide] | 28.6 µM | 83.80% |  |  | > 30 µM | 0.35 µM | 60.30% | 14.8 µL/min/mg | 1.56 h | < 9.6 µL/min/mg | > 2.42 h |  | 
Cc1ccc2c(c1)Sc1cc(C)ccc1C2NC(=O)c1ccc(C(F)(F)F)[nH]c1=O [Compound 252, N-(3,6-dimethyl-9H-thioxanthen-9-yl)-2-oxo-6-(trifluoromethyl)-1,2-dihydropyridine-3-carboxamide] | 19.3 µM | 28.60% | 41.7 µL/min/mg | 0.553 h | 5.84 µM | 0.01 µM | 73.50% | 11 µL/min/mg | 2.1 h |  |  |  | 
O=C(NC(c1ccc(Cl)cc1)c1ccc(Cl)cc1)c1ccc(C(F)(F)F)[nH]c1=O [Compound 17, N-(bis(4-chlorophenyl)methyl)-2-oxo-6-(trifluoromethyl)-1,2-dihydropyridine-3-carboxamide] | 10.9 µM | 70.60% | 10.2 µL/min/mg | 2.27 h | > 30 µM | 0.96 µM | 97.60% |  |  |  |  | < 9.6 µL/min/mg | > 2.42 h
Cc1ccc2c(c1)OCCC2NC(=O)c1ccc(C(F)(F)F)[nH]c1=O (stereo not drawn) [Compound 441, N-(7-methylchroman-4-yl)-2-oxo-6-(trifluoromethyl)-1,2-dihydropyridine-3-carboxamide] | 11.2 µM | 74% | 10.2 µL/min/mg | 2.25 h | > 30 µM | 2.19 µM | 45% |  |  |  |  | 26.4 µL/min/mg | 0.875 h
Nc1cccc2c(NC(=O)c3ccc(C(F)(F)F)[nH]c3=O)cccc12 [Compound 228, N-(5-aminonaphthalen-1-yl)-2-oxo-6-(trifluoromethyl)-1,2-dihydropyridine-3-carboxamide] | 28 µM | 76.60% |  |  | 24.8 µM | 0.56 µM | 60.40% | 16.4 µL/min/mg | 1.41 h | < 9.6 µL/min/mg | > 2.42 h |  | 
COc1ccc2c(c1)CC(OC)C2NC(=O)c1ccc(C(F)(F)F)[nH]c1=O (stereo not drawn) [Compound 352, N-(2,5-dimethoxy-2,3-dihydro-1H-inden-1-yl)-2-oxo-6-(trifluoromethyl)-1,2-dihydropyridine-3-carboxamide] | > 100 µM | 88.70% |  |  | > 30 µM | 0.7 µM | 5.86% | 93.5 µL/min/mg | 0.247 h | < 9.6 µL/min/mg | > 2.42 h |  | 
Cc1ccc2c(c1)Sc1cc(C)ccc1C2NC(=O)c1cc(-c2ccccn2)c(C(F)(F)F)[nH]c1=O [Compound 307, N-(3,6-dimethyl-9H-thioxanthen-9-yl)-6′-oxo-2′-(trifluoromethyl)-1′,6′ dihydro-[2,3′-bipyridine]-5′-carboxamide] | 8.98 µM | 96.20% |  |  | 2.73 µM | 0.01 µM | 0.85% | 154 µL/min/mg | 0.15 h | < 9.6 µL/min/mg | > 2.42 h |  | 
Cc1ccc(C(NC(=O)c2ccc(C(F)(F)F)[nH]c2=O)c2ccc(C)cc2)cc1 [Compound 15, N-(di-p-tolylmethyl)-2-oxo-6-(trifluoromethyl)-1,2-dihydropyridine-3-carboxamide] | 11.2 µM | 5.60% | 96.8 µL/min/mg | 0.238 h | > 30 µM | 0.26 µM | 41.70% | 30.2 µL/min/mg | 0.765 h |  |  |  | 
CCC[C@H]1C[C@@H](NC(=O)c2ccc(C(F)(F)F)[nH]c2=O)c2cc(C)ccc2N1 [Compound 362, N-((2S,4R)-6-methyl-2-propyl-1,2,3,4-tetrahydroquinolin-4-yl)-2-oxo-6-(trifluoromethyl)-1,2-dihydropyridine-3-carboxamide] | 27.5 µM | 70% |  |  | > 30 µM | 0.08 µM | 58.50% |  |  | 12.1 µL/min/mg | 1.9 h | 15.3 µL/min/mg | 1.51 h
O=C(NC1CCCc2c(O)cccc21)c1ccc(C(F)(F)F)[nH]c1=O (stereo not drawn) [Compound 230, N-(5-hydroxy-1,2,3,4-tetrahydronaphthalen-1-yl)-2-oxo-6-(trifluoromethyl)-1,2-dihydropyridine-3-carboxamide] | 40.7 µM | 94.70% |  |  | > 30 µM | 0.21 µM | 83.40% |  |  | < 9.6 µL/min/mg | > 2.42 h | < 9.6 µL/min/mg | > 2.42 h
